Measurements: patent publication US12371428B2 (Exelixis, Inc., priority 2019, dated 2025)
Where a name gives a salt, the structure may show the parent alone. Read-outs that look alike come from different tables or passages of the source.

Experiments:
[1] = biological target: Human KDR (residues 790-1356) (Homo sapiens (Human), UniProt P35968); assay: Human KDR kinase assay, HTRF KinEase (Example B-2); format: biochemical
Description: (§1) Kinase activity and compound inhibition were also investigated using the HTRF® KinEase assay (Cisbio Cat #62TKOPEB) per manufacturer's instructions. In short, compounds were delivered in 300 nL volumes at 10 different concentrations in DMSO (3% final) to empty 384-well assay plates (Corning cat #3824). A mixture of enzyme, […] biotynlated peptide substrate, and buffer in 10 μL volume was added. The assay was started upon the addition of ATP (at Km). The 10 μL reaction was incubated at room temperature. The reaction was stopped upon the addition of detection buffer containing streptavidin-XL665 ([…]) and TK antibody-Eu3+([…]). After a 60 min incubation at room temperature, the fluorescence at 665 nm and 620 nm was read on an Envision microplate reader (Perkin Elmer).
(§2) Kinase activity normalized to DMSO (100% activity) and reference compound at […] and (0% activity) was calculated using the fluorescence ratio […]. IC50 values were calculated by nonlinear regression analysis using a 4-parameter logistic curve fit in ActivityBase XE (IDBS).
(§3) Example B-2: Human KDR (residues 790-1356; CarnaBio, 0.1 ng/well) was also incubated with enzymatic buffer (Cisbio) supplemented with 5 mM MgCl2, 1 mM MnCl2, and 1 mM DTT. The mixture was added to the pre-plated compounds. The reaction was initiated upon addition of ATP at Km (4.0 μM). The reaction was incubated at room temperature for 40 min and stopped upon the addition of SA-XL665 and TK-antibody both diluted in EDTA-containing kinase detection buffer (Cisbio). The kinase activity was calculated as stated above and the IC50 values were reported.

[2] = biological target: Human MET (residues 956-1390) (Homo sapiens (Human), UniProt P08581); assay: Human Met kinase assay, HTRF KinEase (Example D-2); format: biochemical; details: read-out: c-Met IC50
Chain of Human MET (residues 956-1390) (P08581 956-1390): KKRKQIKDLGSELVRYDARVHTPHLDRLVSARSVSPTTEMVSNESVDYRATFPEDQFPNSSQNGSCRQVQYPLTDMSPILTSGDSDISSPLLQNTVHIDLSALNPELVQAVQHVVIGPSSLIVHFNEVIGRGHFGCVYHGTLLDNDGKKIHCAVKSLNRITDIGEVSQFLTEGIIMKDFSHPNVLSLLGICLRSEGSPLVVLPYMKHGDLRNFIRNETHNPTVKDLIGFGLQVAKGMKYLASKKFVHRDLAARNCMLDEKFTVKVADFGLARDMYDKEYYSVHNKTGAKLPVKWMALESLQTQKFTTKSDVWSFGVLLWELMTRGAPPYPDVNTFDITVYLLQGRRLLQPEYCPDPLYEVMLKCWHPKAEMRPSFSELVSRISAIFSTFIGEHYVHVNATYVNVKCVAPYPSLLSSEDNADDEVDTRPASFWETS
Description: as §1, §2
as §3, with “D-2:” for “B-2:”, “MET” for “KDR”, “956-1390;” for “790-1356;”, “DTT” for “MnCl2,”, “MnCl2.” for “DTT.”, “The reaction was initiated upon addition of ATP at Km (4.0 μM).” left out

[3] = biological target: Human MER (residues 528-999) (Homo sapiens (Human), UniProt Q12866); assay: Human Mer kinase assay, HTRF KinEase (Example C-2); format: biochemical
Chain of Human MER (residues 528-999) (Q12866 528-999): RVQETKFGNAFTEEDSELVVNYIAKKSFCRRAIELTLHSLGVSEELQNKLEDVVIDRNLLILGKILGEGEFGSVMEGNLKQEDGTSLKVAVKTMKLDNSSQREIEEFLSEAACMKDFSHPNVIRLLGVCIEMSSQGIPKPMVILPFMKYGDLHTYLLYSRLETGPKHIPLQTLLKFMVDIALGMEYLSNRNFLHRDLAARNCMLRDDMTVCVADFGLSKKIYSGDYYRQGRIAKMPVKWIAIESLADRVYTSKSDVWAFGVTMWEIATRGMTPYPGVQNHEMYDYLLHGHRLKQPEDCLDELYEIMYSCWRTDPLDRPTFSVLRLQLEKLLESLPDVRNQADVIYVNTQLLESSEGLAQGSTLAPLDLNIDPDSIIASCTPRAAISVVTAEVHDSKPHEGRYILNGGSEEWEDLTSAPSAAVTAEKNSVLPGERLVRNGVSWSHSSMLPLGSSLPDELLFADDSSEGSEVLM
Description: as §1, §2
Example C-2: Human MER (residues 528-999; CarnaBio, 1 ng/well) was also incubated with enzymatic buffer (Cisbio) supplemented with 5 mM MgCl2 and 1 mM DTT. The mixture was added to the pre-plated compounds. The reaction was initiated upon addition of ATP at Km (40 μM). The reaction was incubated at room temperature for 60 min and stopped upon the addition of SA-XL665 and TK-antibody both diluted in EDTA-containing kinase detection buffer (Cisbio). The kinase activity was calculated as stated above and the IC50 values were reported.

[4] = biological target: KDR (phospho-KDR, VEGF165-stimulated HUVEC cells) (Homo sapiens (Human), UniProt P35968); assay: KDR autophosphorylation ELISA in HUVEC cells (Example G); format: cell-based; details: cellular activity; KDR autophosphorylation ELISA in HUVEC cells
Chain of KDR (phospho-KDR, VEGF165-stimulated HUVEC cells) (P35968 20-1356): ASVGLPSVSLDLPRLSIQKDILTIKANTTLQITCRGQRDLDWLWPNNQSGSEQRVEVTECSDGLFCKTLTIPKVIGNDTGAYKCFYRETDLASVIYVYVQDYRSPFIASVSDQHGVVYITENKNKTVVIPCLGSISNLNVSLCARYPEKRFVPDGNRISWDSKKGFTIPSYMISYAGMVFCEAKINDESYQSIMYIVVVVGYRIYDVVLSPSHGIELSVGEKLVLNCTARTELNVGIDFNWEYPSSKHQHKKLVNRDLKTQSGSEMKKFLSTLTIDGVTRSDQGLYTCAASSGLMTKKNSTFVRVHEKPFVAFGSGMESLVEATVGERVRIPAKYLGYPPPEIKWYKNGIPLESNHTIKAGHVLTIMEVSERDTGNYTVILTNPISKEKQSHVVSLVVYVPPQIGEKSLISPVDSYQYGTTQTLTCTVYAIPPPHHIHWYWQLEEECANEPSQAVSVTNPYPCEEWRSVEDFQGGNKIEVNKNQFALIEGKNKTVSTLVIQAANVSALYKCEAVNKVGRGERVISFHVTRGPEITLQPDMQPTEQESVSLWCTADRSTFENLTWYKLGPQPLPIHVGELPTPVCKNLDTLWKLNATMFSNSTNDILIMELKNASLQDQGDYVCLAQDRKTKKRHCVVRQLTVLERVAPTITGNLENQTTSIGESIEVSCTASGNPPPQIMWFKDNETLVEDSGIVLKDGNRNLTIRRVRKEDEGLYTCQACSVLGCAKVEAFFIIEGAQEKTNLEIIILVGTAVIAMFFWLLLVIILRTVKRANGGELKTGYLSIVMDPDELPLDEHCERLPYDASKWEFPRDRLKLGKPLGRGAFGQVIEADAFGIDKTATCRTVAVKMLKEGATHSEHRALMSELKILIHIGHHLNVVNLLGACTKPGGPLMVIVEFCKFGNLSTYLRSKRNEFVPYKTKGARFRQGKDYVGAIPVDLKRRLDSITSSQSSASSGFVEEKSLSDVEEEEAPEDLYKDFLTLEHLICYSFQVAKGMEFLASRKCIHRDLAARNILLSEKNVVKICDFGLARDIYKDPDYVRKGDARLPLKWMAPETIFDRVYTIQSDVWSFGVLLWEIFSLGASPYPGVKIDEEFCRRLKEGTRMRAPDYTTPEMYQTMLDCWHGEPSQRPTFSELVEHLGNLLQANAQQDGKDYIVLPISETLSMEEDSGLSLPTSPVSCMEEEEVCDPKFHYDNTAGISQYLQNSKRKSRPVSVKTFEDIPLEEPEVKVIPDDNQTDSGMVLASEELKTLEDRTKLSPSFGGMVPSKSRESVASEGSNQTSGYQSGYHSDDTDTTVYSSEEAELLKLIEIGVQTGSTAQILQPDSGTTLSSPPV
In short: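 HUVECs were serum-starved 24 h, given compound as an 8-point dilution series (0.3% DMSO final) for 1 h, then stimulated with 100 ng/mL VEGF165 for 5 min. Lysate phospho-KDR was quantified by sandwich ELISA against a phospho-KDR standard, and IC50s came from a 4-parameter logistic fit.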

[5] = biological target: Met (phospho-Met, HGF-stimulated PC-3 prostate cancer cells) (Homo sapiens (Human), UniProt P08581); assay: Met autophosphorylation ELISA in PC-3 cells (Example F); format: cell-based; details: cellular activity; Met autophosphorylation ELISA in PC-3 cells; read-out: c-Met IC50
In short: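 Compounds were tested on HGF-stimulated PC-3 cells. After 24 h culture and 3 h serum starvation, cells got compound for 1 h and 100 ng/mL HGF for 10 min, and Met tyrosine phosphorylation was measured by ELISA.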

[6] = biological target: Mer (phospho-Mer, MERTK-transfected 293A cells) (Homo sapiens (Human), UniProt Q12866); assay: Mer autophosphorylation ELISA in transient transfected 293A cells (Example H); format: cell-based; details: cellular activity; Mer autophosphorylation ELISA in transient transfected 293A cells
Chain of Mer (phospho-Mer, MERTK-transfected 293A cells) (Q12866 21-999): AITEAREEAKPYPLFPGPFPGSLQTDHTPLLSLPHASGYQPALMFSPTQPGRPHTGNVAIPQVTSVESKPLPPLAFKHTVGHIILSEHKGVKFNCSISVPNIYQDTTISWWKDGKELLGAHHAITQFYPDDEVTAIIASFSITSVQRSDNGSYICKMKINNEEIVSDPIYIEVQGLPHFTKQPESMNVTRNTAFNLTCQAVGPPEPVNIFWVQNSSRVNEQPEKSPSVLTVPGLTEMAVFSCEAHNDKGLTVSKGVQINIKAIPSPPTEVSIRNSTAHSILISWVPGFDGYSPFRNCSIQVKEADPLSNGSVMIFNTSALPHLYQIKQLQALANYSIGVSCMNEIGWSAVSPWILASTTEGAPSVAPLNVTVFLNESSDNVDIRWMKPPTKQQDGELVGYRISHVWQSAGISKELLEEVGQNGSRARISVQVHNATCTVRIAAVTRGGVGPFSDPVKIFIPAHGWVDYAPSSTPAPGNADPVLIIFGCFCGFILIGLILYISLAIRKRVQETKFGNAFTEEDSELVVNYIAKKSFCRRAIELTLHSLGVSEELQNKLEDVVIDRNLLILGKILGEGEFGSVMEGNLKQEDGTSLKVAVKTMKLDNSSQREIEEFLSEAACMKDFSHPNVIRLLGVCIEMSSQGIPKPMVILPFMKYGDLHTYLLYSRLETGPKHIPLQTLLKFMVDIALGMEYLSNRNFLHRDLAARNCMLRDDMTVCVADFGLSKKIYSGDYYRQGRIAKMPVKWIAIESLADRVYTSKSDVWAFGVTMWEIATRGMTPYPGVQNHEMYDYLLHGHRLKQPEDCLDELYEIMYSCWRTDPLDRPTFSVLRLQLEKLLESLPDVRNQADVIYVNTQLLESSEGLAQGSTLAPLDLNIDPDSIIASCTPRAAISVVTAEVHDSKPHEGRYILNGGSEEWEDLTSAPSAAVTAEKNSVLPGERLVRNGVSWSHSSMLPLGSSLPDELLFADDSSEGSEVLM
In short: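 Inhibition of cellular Mer autophosphorylation is determined in 293A cells transiently expressing human MERTK after 1 h compound exposure (8 concentrations, serum-free, 0.3% DMSO). Phospho-Mer in clarified lysates is measured by ELISA, with DMSO and reference-inhibitor wells defining the 100% and 0% activity limits.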

[7] = protocol of Example B-2 (other compounds)
[8] = protocol of Example D-2 (other compounds)
[9] = protocol of Example C-2 (other compounds)

Chain of Human KDR (residues 790-1356) (P35968 790-1356): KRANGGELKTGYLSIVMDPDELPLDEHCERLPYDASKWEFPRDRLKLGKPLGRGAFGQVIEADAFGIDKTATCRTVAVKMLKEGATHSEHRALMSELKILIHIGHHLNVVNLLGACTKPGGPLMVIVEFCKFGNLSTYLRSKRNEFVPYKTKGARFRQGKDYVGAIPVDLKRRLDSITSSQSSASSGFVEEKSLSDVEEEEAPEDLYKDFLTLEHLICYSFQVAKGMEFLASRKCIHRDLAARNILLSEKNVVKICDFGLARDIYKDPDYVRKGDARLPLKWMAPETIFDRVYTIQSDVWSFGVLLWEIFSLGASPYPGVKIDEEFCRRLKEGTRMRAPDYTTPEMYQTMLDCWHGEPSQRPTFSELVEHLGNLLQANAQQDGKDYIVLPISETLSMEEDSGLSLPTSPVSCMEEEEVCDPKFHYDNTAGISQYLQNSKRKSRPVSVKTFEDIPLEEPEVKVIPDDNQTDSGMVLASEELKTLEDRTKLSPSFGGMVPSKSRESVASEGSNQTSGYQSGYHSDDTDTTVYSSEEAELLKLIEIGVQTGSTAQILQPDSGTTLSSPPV

| Compound | IC50 [1, 7] [nM] | IC50 [2, 8] [nM] | IC50 [3, 9] [nM] | IC50 ([1]; protocol of Example B-2) [nM] | IC50 ([2]; protocol of Example D-2) [nM] | IC50 ([3]; protocol of Example C-2) [nM] | IC50 [4] [nM] | IC50 [5] [nM] | IC50 [6] [nM] |
| --- | --- | --- | --- | --- | --- | --- | --- | --- | --- |
| COc1cc2nccc(Oc3ccc(NC(=O)C4=C5CCCN5CC(c5ccc(F)cc5)C4=O)cc3F)c2nc1OC (single isomer, unassigned; enantiomer 2) [Compound 375, N-[4-[(6,7-dimethoxy-1,5-naphthyridin-4-yl)oxy]-3-fluorophenyl]-6-(4-fluorophenyl)-7-oxo-2,3,5,6-tetrahydro-1H-indolizine-8-carboxamide, enantiomer 2] | > 300 | < 100 | < 100 |  |  |  |  |  |  |
| COc1ccc(-c2cn(C)cc(C(=O)Nc3ccc(Oc4ccnc5cc(OC)c(OC)nc45)c(F)c3)c2=O)cc1 [Compound 34, N-[4-[(6,7-Dimethoxy-1,5-naphthyridin-4-yl)oxy]-3-fluorophenyl]-5-(4-methoxyphenyl)-1-methyl-4-oxopyridine-3-carboxamide hydrochloride] | < 100 | 100 to 300 | < 100 |  |  |  |  |  |  |
| COc1ccc2nccc(Oc3ccc(NC(=O)c4c[nH]c(=O)n(-c5ccc(F)cc5)c4=O)cc3F)c2n1 [Compound 103, N-[3-Fluoro-4-[(6-methoxy-1,5-naphthyridin-4-yl)oxy]phenyl]-3-(4-fluorophenyl)-2,4-dioxo-1H-pyrimidine-5-carboxamide] | > 300 | < 100 | < 100 |  |  |  |  |  |  |
| COc1ccc2nccc(Oc3ccc(NC(=O)c4c[nH]c(=O)n(-c5ccc(F)cc5)c4=O)cc3)c2n1 [Compound 339, 3-(4-fluorophenyl)-N-[4-[(6-methoxy-1,5-naphthyridin-4-yl)oxy]phenyl]-2,4-dioxo-1H-pyrimidine-5-carboxamide] | > 300 | 100 to 300 | 100 to 300 |  |  |  |  |  |  |
| COc1cc2nccc(Oc3ccc(NC(=O)c4cnc(NC(=O)OC(C)(C)C)n(-c5ccc(F)cc5)c4=O)cc3F)c2nc1OC [Compound 344, tert-butyl N-[5-[[4-[(6,7-dimethoxy-1,5-naphthyridin-4-yl)oxy]-3-fluorophenyl]icarbamoyl]-1-(4-fluorophenyl)-6-oxopyrimidin-2-yl]carbamate] | 100 to 300 | 100 to 300 | < 100 |  |  |  |  |  |  |
| CCOc1nc(C)c(-c2ccc(F)cc2)c(O)c1C(=O)Nc1ccc(Oc2ccnc3cc(OC)c(OC)nc23)c(F)c1 [Compound 365, N-[4-[(6,7-dimethoxy-1,5-naphthyridin-4-yl)oxy]-3-fluorophenyl]-2-ethoxy-5-(4-fluorophenyl)-4-hydroxy-6-methylpyridine-3-carboxamide] | > 300 | > 300 | 100 to 300 |  |  |  |  |  |  |
| COc1cc2nccc(Oc3ccc(NC(=O)c4c(C)nc(OC)c(-c5ccc(F)cc5)c4OC)cc3F)c2nc1OC [Compound 444, N-[4-[(6,7-dimethoxy-1,5-naphthyridin-4-yl)oxy]-3-fluorophenyl]-5-(4-fluorophenyl)-4,6-dimethoxy-2-methylpyridine-3-carboxamide] | > 300 | > 300 | > 300 |  |  |  |  |  |  |
| C=C(C)c1cc2nccc(Oc3ccc(NC(=O)c4cnc(C)c(-c5ccc(F)cc5C)c4O)cc3F)c2nc1OC [Compound 449, N-[3-fluoro-4-[(6-methoxy-7-prop-1-en-2-yl-1,5-naphthyridin-4-yl)oxy]phenyl]-5-(4-fluoro-2-methylphenyl)-4-hydroxy-6-methylpyridine-3-carboxamide] |  |  |  | > 300 | > 300 | < 100 |  |  |  |
| C=C(C)c1cc2nccc(Oc3ccc(NC(=O)c4c(C)nc(C)c(-c5ccc(F)cc5)c4O)cc3F)c2nc1OC [Compound 453, N-[3-fluoro-4-[(6-methoxy-7-prop-1-en-2-yl-1,5-naphthyridin-4-yl)oxy]phenyl]-5-(4-fluorophenyl)-4-hydroxy-2,6-dimethylpyridine-3-carboxamide] |  |  |  | 100 to 300 | > 300 | < 100 |  |  |  |
| CCOc1c(C(=O)Nc2ccc(Oc3ccnc4cc(OC)c(OC)nc34)c(F)c2)nnc(C)c1-c1ccc(F)cc1 [Compound 569, N-[4-[(6,7-Dimethoxy-1,5-naphthyridin-4-yl)oxy]-3-fluorophenyl]-4-ethoxy-5-(4-fluorophenyl)-6-methylpyridazine-3-carboxamide] |  |  |  | < 100 |  | < 100 | < 100 | < 100 | < 100 |

Second part, the molecule after the results:

| IC50 [1, 7] [nM] | IC50 [2, 8] [nM] | IC50 [3, 9] [nM] | IC50 ([1]; protocol of Example B-2) [nM] | IC50 ([2]; protocol of Example D-2) [nM] | IC50 ([3]; protocol of Example C-2) [nM] | IC50 [4] [nM] | IC50 [5] [nM] | IC50 [6] [nM] | Compound |
| --- | --- | --- | --- | --- | --- | --- | --- | --- | --- |
| > 300 | < 100 | < 100 |  |  |  |  |  |  | Cc1ncc(C(=O)Nc2ccc(Oc3ccnc4cc(C(F)(F)F)cnc34)cc2)c(O)c1-c1ccc(F)cc1 [Compound 150, 5-(4-Fluorophenyl)-4-hydroxy-6-methyl-N-[4-[[7-(trifluoromethyl)-1,5-naphthyridin-4-yl]oxy]phenyl]pyridine-3-carboxamide] |
| > 300 | > 300 | > 300 |  |  |  |  |  |  | Cc1c(-c2ccc(F)cc2)c(=O)c(C(=O)Nc2ccc(Oc3ccnc4cc(C(F)(F)F)cnc34)c(F)c2)cn1C(C)C [Compound 152, 5-(4-Fluorophenyl)-N-[3-fluoro-4-[[7-(trifluoromethyl)-1,5-naphthyridin-4-yl]oxy]phenyl]-6-methyl-4-oxo-1-propan-2-ylpyridine-3-carboxamide] |
| < 100 | < 100 | < 100 |  |  |  |  |  |  | CC(C)n1cc(C(=O)Nc2ccc(Oc3ccnc4cc(F)cnc34)c(F)c2)c(=O)c(-c2ccc(F)cc2)c1 [Compound 161, N-[3-Fluoro-4-[(7-fluoro-1,5-naphthyridin-4-yl)oxy]phenyl]-5-(4-fluorophenyl)-4-oxo-1-propan-2-ylpyridine-3-carboxamide] |
|  |  |  | 100 to 300 | > 300 | < 100 |  |  |  | C=C(C)c1cc2nccc(Oc3ccc(NC(=O)c4cnc(C)c(-c5ccc(F)cc5)c4O)cc3F)c2nc1OC [Compound 452, N-[3-fluoro-4-[(6-methoxy-7-prop-1-en-2-yl-1,5-naphthyridin-4-yl)oxy]phenyl]-5-(4-fluorophenyl)-4-hydroxy-6-methylpyridine-3-carboxamide] |
|  |  |  | < 100 |  | < 100 | < 100 | < 100 | < 100 | COc1cnc2c(Oc3ccc(NC(=O)c4nnc(C)c(-c5ccc(F)cc5)c4OC(C)C)cc3F)ccnc2c1 [Compound 567, N-[3-Fluoro-4-[(7-methoxy-1,5-naphthyridin-4-yl)oxy]phenyl]-5-(4-fluorophenyl)-6-methyl-4-propan-2-yloxypyridazine-3-carboxamide] |
|  |  |  | > 300 | < 100 | < 100 |  |  |  | COc1cc2nccc(Oc3ccc(NC(=O)c4cn(C(C)C)c(C)c(-c5ccc(F)cc5)c4=O)cc3F)c2nc1N(C)C [Compound 583, N-[4-[[6-(Dimethylamino)-7-methoxy-1,5-naphthyridin-4-yl]oxy]-3-fluorophenyl]-5-(4-fluorophenyl)-6-methyl-4-oxo-1-propan-2-ylpyridine-3-carboxamide] |
